The subject of assay [1] is HCT116 MTAP null cells. Put plainly: HCT116 proliferation assay, MTAP null cells (CellTiter-Glo, 6 days). It is filed as cell-based. To be noted: 144 h, read-out: Protif_ HCT116-MTAP null IC50. The procedure: (§1) HCT116 MTAP null and WT cells were seeded in 96-well tissue culture plates in RPMI 1640 media + 10% fetal bovine serum. Plates were incubated overnight at 37° C. and 5% CO2. Cells were then treated with a 8- or 9-point serial dilution of compound, using a top concentration of 1 or 10 µM, 1:3 serial dilution steps and, a DMSO-only control. Cells were incubated in the presence of drug for 6 days. Effects on cell viability were measured with the CellTiter-Glo® Luminescent Cell Viability Assay (Promega) per manufacturer’s recommendation. Assay plates were read on an EnVision™ Multilabel Reader using the Ultra-Sensitive luminescence module.
A general note: ATP-based viability assays read luminescence as a measure of living cells.

In assay [2] the test system is HCT116 WT cells. As to the kind of experiment: HCT116 proliferation assay, WT cells (CellTiter-Glo, 6 days). Format: cell-based. To be noted: Homo sapiens, HCT-116, 144 h, read-out: Prolif_HCT116-WT IC50. The procedure: as §1

Structures are written as SMILES. Like-named read-outs stand apart in the source and are kept apart here. A value given as a limit tells only on which side of the number the result lay.

Usually IC50 stands for the midpoint of a concentration-inhibition curve. With `Cc1cc2cc(C(=O)N(Cc3ccc(C(F)(F)F)cn3)[C@H](C)c3ncon3)ccc2nc1N` (single isomer, unassigned) [Example 818], the IC50 stood at 24 nM in assay [1] (HCT116-MTAP null) and 372 nM in assay [2].

For `Cc1cc2cc(C(=O)N(Cc3ccc(Cl)nn3)[C@H](C)c3ncccn3)ccc2nc1N` (single isomer, unassigned) [Example 819], the IC50 in assay [1] (HCT116-MTAP null) worked out at 29 nM; in assay [2], 543 nM.

Turning to `Cc1cc2cc(C(=O)N(Cc3ccc(C#N)nc3C)[C@H](C)c3ncccn3)ccc2nc1N` (single isomer, unassigned) [Example 820], the results for the IC50 in assay [1] (HCT116-MTAP null) and in assay [2] were 239 nM and 3550 nM, respectively.

For `C[C@H](c1ncccn1)N(Cc1cc2c(cn1)OCCC2)C(=O)c1ccc2nc(N)c(I)cc2c1` (single isomer, unassigned) [Example 836], the IC50 in assay [1] (HCT116-MTAP null) is 129 nM; in assay [2], above 10000 nM.

Regarding `CC(c1ncccc1F)N(Cc1ccc(N2CCOCC2)nn1)C(=O)c1cnc2nc(N)c(Br)cc2c1` (stereo in doubt) [Example 730, 7-amino-6-bromo-N-((1R)-1-(3-fluoro-2-pyridinyl)ethyl)-N-((6-(4-morpholinyl)-3-pyridazinyl)methyl)-1,8-naphthyridine-3-carboxamide], the concentration for half-maximal inhibition (IC50) in assay [1] (HCT116-MTAP null) is 507 nM; in assay [2] it was 8460 nM.

`Cc1cc2cc(C(=O)N(Cc3ccc(N4CCOCC4)nn3)C(C)c3ncccn3)c(F)cc2nc1N` (stereo in doubt) [Example 731, 2-amino-7-fluoro-3-methyl-N-((6-(4-morpholinyl)-3-pyridazinyl)methyl)-N-((1R)-1-(2-pyrimidinyl)ethyl)-6-quinolinecarboxamide]: the IC50 in assay [1] (HCT116-MTAP null) is 50 nM; in assay [2], 693 nM.

With `COc1ccc(CN(C(=O)c2ccc3nc(N)c(Br)cc3c2)C(C)c2ncn(C)n2)nn1` (stereo in doubt) [Example 755, (R)-2-amino-3-bromo-N-((6-methoxypyridazin-3-yl)methyl)-N-(1-(1-methyl-1H-1,2,4-triazol-3-yl)ethyl)quinoline-6-carboxamide], the values for the IC50 in assay [1] (HCT116-MTAP null) and in assay [2] were 184 nM and above 10000 nM, respectively.

Regarding `Cc1cc2cc(C(=O)N(Cc3ccc(C(F)(F)F)cn3)CC(C)C)ccc2nc1N` [Example 300, 2-amino-N-isobutyl-3-methyl-N-((5-(trifluoromethyl)pyridin-2-yl)methyl)quinoline-6-carboxamide], the IC50 in assay [1] turned out to be 317 nM; in assay [2], 5300 nM.

As for `Cc1cc2cc(C(=O)N(Cc3ccc(C(F)(F)F)cn3)Cc3ncccn3)c(F)cc2nc1N` [Example 319, 2-amino-7-fluoro-3-methyl-N-(2-pyrimidinylmethyl)-N-((5-(trifluoromethyl)-2-pyridinyl)methyl)-6-quinolinecarboxamide], the IC50 in assay [1] (HCT116-MTAP null) amounted to 168 nM; in assay [2], 4230 nM.

Regarding `Cc1cc2cc(C(=O)N(Cc3ccc(C(F)(F)F)cn3)Cc3ncc(Cl)cn3)ccc2nc1N` [Example 339, 2-amino-N-((5-chloro-2-pyrimidinyl)methyl)-3-methyl-N-((5-(trifluoromethyl)-2-pyridinyl)methyl)-6-quinolinecarboxamide], the values for the IC50 in assay [1] (HCT116-MTAP null) and in assay [2] were 405 nM and above 10000 nM, respectively.

Regarding `[2H]C([2H])([2H])c1cc2cc(C(=O)N(Cc3ccc(C(F)(F)F)cn3)CC(C)C)ccc2nc1N` [Example 398, 2-amino-N-isobutyl-3-(methyl-d3)-N-((5-(trifluoromethyl)pyridin-2-yl)methyl)quinoline-6-carboxamide], the IC50 in assay [1] is 247 nM; in assay [2], 4780 nM.

In the case of `[2H]C([2H])([2H])c1cc2cc(C(=O)N(Cc3ccc(C(F)(F)F)cn3)[C@H](C)c3ncccn3)ccc2nc1N` [Example 399, (R)-2-amino-3-(methyl-d3)-N-(1-(pyrimidin-2-yl)ethyl)-N-((5-(trifluoromethyl)pyridin-2-yl)methyl)quinoline-6-carboxamide], the IC50 came out at 36 nM in assay [1] and 872 nM in assay [2].

On to `Cc1cc2cc(C(=O)N(Cc3ccc(C(F)(F)F)cn3)[C@H](C)c3ncccn3)ccc2nc1N` [Example 503, 2-amino-3-methyl-N-((1R)-1-(2-pyrimidinyl)ethyl)-N-((5-(trifluoromethyl)-2-pyridinyl)methyl)-6-quinolinecarboxamide], for which the IC50 in assay [1] was found to be 26 nM; in assay [2], 680 nM.

Turning to `Cc1cc2cc(C(=O)N(Cc3ccc(N4CCCCC4)cc3)Cc3ccnc4[nH]ccc34)ccc2nc1N` [Example 563, 2-amino-3-methyl-N-[[4-(1-piperidyl)phenyl]methyl]-N-(1H-pyrrolo [2,3-b]pyridin-4-ylmethyl)quinoline-6-carboxamide], the figures for the IC50 in assay [1] (HCT116-MTAP null) and in assay [2] were 165 nM and above 1000 nM, respectively.

For the compound `Cc1cc2cc(C(=O)N(Cc3ccc(C(F)(F)F)cn3)Cc3csnn3)ccc2nc1N` [Example 564, 2-amino-3-methyl-N-(thiadiazol-4-ylmethyl)-N-[[5-(trifluoromethyl)-2-pyridyl]methyl] quinoline-6-carboxamide], the IC50 is 102 nM in assay [1] (HCT116-MTAP null) and above 1000 nM in assay [2].

Regarding `Cc1cc2cc(C(=O)N(Cc3ccc4c(c3)NC(=O)CO4)Cc3ccccc3F)ccc2nc1N` [Example 569, 2-amino-N-[(2-fluorophenyl)methyl]-3-methyl-N-[(3-oxo-4H-1,4-benzoxazin-6-yl)methyl] quinoline-6-carboxamide], the IC50 in assay [1] (HCT116-MTAP null) was determined as 331 nM; in assay [2] it was 7160 nM.

Regarding `Cc1cc2cc(C(=O)N(Cc3ccc(N4CCC(C(N)=O)CC4)cc3)CC(C)C3CC3)ccc2nc1N` (stereo not drawn) [Example 571, 2-amino-N-(4-(4-carbamoylpiperidin-1-yl)benzyl)-N-(2-cyclopropylpropyl)-3-methylquinoline-6-carboxamide], the IC50 in assay [1] (HCT116-MTAP null) is 202 nM; in assay [2] it was above 1000 nM.

In the case of `Cc1cc2cc(C(=O)N(Cc3ccc(N4CCC(C(N)=O)CC4)cc3)Cc3ccnc4[nH]ccc34)ccc2nc1N` [Example 573, N-((1H-pyrrolo[2,3-b]pyridin-4-yl)methyl)-2-amino-N-(4-(4-carbamoylpiperidin-1-yl)benzyl)-3-methylquinoline-6-carboxamide], the IC50 is 760 nM in assay [1] (HCT116-MTAP null) and above 1000 nM in assay [2].

Regarding `Cc1cc2cc(C(=O)N(Cc3ccc(N4CCCCC4)cc3)CC3(C#N)CC3)ccc2nc1N` [Example 574, 2-amino-N-((1-cyanocyclopropyl)methyl)-3-methyl-N-(4-(piperidin-1-yl)benzyl)quinoline-6-carboxamide], the IC50 in assay [1] (HCT116-MTAP null) is 490 nM; in assay [2] it was above 1000 nM.

With `Cc1cc2cc(C(=O)N(Cc3ccc(C(F)(F)F)cn3)Cc3ncoc3C)ccc2nc1N` [Example 579, 2-amino-3-methyl-N-[(5-methyloxazol-4-yl)methyl]-N-[[5-(trifluoromethyl)-2-pyridyl]methyl]quinoline-6-carboxamide], the values for the IC50 in assay [1] (HCT116-MTAP null) and in assay [2] were 95 nM and above 1000 nM, respectively.

With `Cc1cc2cc(C(=O)N(Cc3ccc(C(F)(F)F)cn3)Cc3cc(Cl)cn3C)ccc2nc1N` [Example 582, 2-amino-N-((4-chloro-1-methyl-1H-pyrrol-2-yl)methyl)-3-methyl-N-((5-(trifluoromethyl)pyridin-2-yl)methyl)quinoline-6-carboxamide], the IC50 in assay [1] (HCT116-MTAP null) was 490 nM; in assay [2], above 1000 nM.

In the case of `Cc1cc2cc(C(=O)N(Cc3cc[nH]c3)Cc3ccc(C(F)(F)F)cn3)ccc2nc1N` [Example 583, N-((1H-pyrrol-3-yl)methyl)-2-amino-3-methyl-N-((5-(trifluoromethyl)pyridin-2-yl)methyl)quinoline-6-carboxamide], the figures for the IC50 in assay [1] (HCT116-MTAP null) and in assay [2] were 140 nM and above 1000 nM, respectively.

`CCOC(C)CN(Cc1ccc(C(F)(F)F)cn1)C(=O)c1ccc2nc(N)c(C)cc2c1` (stereo not drawn) [Example 584, 2-amino-N-(2-ethoxypropyl)-3-methyl-N-((5-(trifluoromethyl)pyridin-2-yl)methyl)quinoline-6-carboxamide]: the concentration for half-maximal inhibition (IC50) in assay [1] (HCT116-MTAP null) was 290 nM; in assay [2] it was above 1000 nM.

Regarding `Cc1cc2cc(C(=O)N(CCc3ccon3)Cc3ccc(C(F)(F)F)cn3)ccc2nc1N` [Example 585, 2-amino-N-(2-(isoxazol-3-yl)ethyl)-3-methyl-N-((5-(trifluoromethyl)pyridin-2-yl)methyl)quinoline-6-carboxamide], the 50% inhibitory concentration (IC50) in assay [1] (HCT116-MTAP null) worked out at 580 nM; in assay [2], 11000 nM.

Turning to `CCc1csc(CN(Cc2ccc(C(F)(F)F)cn2)C(=O)c2ccc3nc(N)c(C)cc3c2)n1` [Example 586, 2-amino-N-((4-ethylthiazol-2-yl)methyl)-3-methyl-N-((5-(trifluoromethyl)pyridin-2-yl)methyl)quinoline-6-carboxamide], the IC50 in assay [1] (HCT116-MTAP null) came to 344 nM; in assay [2], 5550 nM.

For `Cc1cc2cc(C(=O)N(Cc3ccccc3F)C3CC(c4ccc(OC(F)(F)F)cc4)C3)ccc2nc1N` (stereo not drawn) [Example 587, 2-amino-N-(2-fluorobenzyl)-3-methyl-N-(3-(4-(trifluoromethoxy)phenyl)cyclobutyl)quinoline-6-carboxamide], the IC50 turned out to be 807 nM in assay [1] (HCT116-MTAP null) and 404 nM in assay [2].

`Cc1cc2cc(C(=O)N(Cc3ccc4[nH]c(=O)[nH]c4c3)Cc3ccncc3F)ccc2nc1N` [Example 588, 2-amino-N-((3-fluoropyridin-4-yl)methyl)-3-methyl-N-((2-oxo-2,3-dihydro-1H-benzo [d]imidazol-5-yl)methyl)quinoline-6-carboxamide]: the values for the IC50 in assay [1] (HCT116-MTAP null) and in assay [2] were 760 nM and above 1000 nM, respectively.
